From publication PMC8765293, “Inhibitor-Resistant Mutants Give Important Insights into Candida albicans ABC Transporter Cdr1 Substrate Specificity and Help Elucidate Efflux Pump Inhibition” (Antimicrobial Agents and Chemotherapy, 2022)
≈ marks a conversion by molar mass, not a printed value. Where two headings read alike, the source gives them in different places.

Tests used:
wt Cdr1 ATPase activity = wt Cdr1 ATPase activity (Candida albicans, UniProt Q5ANA3); assay: biochemical; conditions: for Ki / IC50: CDR1 (wt); for Ki: Dixon plot, read-out: Ki (Cdr1 ATPase activity); for Vmax of ATPase activity in the presence of inhibitor: CDR1; for type of inhibition of ATPase activity (Lineweaver-Burk): wt Cdr1
AD/CDR1-M639I = assay: MIC, modified CLSI M27-A3 broth microdilution; conditions: for Fold-reduced resistance level (MIC) relative to AD/CDR1: M639I, 1 = no change; for MIC: Saccharomyces cerevisiae, read-out: MIC (drug susceptibility)
AD/CDR1-G521R = assay: MIC, modified CLSI M27-A3 broth microdilution; conditions: for Fold-reduced resistance level (MIC) relative to AD/CDR1: G521R, 1 = no change; for MIC: Saccharomyces cerevisiae, read-out: MIC (drug susceptibility)
AD/CDR1-T1355N = assay: MIC, modified CLSI M27-A3 broth microdilution; conditions: for MIC: Saccharomyces cerevisiae, read-out: MIC (drug susceptibility); for Fold-reduced resistance level (MIC) relative to AD/CDR1: T1355N, 1 = no change
[1] = tested on: AD/pABC3 (empty vector control, sensitive strain); assay: microbe, parasite or virus in culture; conditions: Saccharomyces cerevisiae
[2] = tested on: AD/CDR1 (AD1-8u- overexpressing wt Cdr1); assay: MIC, modified CLSI M27-A3 broth microdilution; conditions: Saccharomyces cerevisiae, read-out: MIC (drug susceptibility)
AD/CDR1-A713P = assay: MIC, modified CLSI M27-A3 broth microdilution; conditions: for Fold-reduced resistance level (MIC) relative to AD/CDR1: A713P, 1 = no change; for MIC: Saccharomyces cerevisiae, read-out: MIC (drug susceptibility)
[3] = read-out: MIC (drug susceptibility), strain AD/pABC3
[4] = read-out: MIC (drug susceptibility)

wt Cdr1 ATPase activity, sequence (Q5ANA3 whole entry): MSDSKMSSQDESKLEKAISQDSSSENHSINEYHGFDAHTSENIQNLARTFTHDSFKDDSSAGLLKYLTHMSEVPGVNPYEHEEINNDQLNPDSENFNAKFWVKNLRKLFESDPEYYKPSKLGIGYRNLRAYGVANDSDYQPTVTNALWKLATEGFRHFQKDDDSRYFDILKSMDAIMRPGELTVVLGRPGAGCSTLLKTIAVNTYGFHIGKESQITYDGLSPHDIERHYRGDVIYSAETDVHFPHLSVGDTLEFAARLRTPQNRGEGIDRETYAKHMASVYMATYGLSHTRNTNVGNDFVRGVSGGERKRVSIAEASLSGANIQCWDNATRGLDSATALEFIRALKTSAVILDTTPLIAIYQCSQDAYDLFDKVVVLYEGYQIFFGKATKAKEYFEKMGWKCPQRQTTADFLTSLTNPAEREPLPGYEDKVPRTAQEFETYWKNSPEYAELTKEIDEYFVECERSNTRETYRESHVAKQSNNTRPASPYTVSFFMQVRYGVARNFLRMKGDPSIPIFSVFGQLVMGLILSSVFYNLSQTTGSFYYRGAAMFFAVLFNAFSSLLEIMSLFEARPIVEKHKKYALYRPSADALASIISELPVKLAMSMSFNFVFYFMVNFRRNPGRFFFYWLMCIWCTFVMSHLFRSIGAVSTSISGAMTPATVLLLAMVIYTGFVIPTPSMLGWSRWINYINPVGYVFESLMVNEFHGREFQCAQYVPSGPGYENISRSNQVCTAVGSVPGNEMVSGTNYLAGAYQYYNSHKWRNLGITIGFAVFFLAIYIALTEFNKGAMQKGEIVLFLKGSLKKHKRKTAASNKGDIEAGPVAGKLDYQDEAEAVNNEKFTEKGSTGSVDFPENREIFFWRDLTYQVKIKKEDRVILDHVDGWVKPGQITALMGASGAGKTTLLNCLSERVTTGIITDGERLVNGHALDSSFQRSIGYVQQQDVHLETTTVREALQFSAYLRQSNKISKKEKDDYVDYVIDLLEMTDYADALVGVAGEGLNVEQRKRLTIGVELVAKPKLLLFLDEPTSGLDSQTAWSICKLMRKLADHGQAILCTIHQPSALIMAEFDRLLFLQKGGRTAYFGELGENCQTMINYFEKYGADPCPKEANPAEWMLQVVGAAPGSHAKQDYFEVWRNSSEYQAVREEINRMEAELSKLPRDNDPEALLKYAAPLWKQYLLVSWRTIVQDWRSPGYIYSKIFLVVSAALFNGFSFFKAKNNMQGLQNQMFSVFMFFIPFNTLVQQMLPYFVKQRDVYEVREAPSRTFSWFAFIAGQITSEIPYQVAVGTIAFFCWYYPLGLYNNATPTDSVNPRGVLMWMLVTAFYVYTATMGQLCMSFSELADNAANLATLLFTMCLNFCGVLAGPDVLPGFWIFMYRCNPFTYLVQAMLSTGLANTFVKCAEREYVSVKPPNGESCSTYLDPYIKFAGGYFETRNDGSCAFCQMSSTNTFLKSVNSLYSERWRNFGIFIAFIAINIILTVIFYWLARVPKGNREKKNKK

[O]=[V]([O-])([O-])[O-] [Vanadate, vanadate]
Ki (wt Cdr1 ATPase activity): 960 ± 80 nM
IC50 (wt Cdr1 ATPase activity; from Fig. 4, read-out: IC50 for inhibition of Cdr1 ATPase activity): 1200 nM
Vmax of ATPase activity in the presence of inhibitor (wt Cdr1 ATPase activity; [I] 0.5 μM): 161 nmol/min/mg
Vmax of ATPase activity in the presence of inhibitor (wt Cdr1 ATPase activity; [I] 2.0 μM): 90 nmol/min/mg
type of inhibition of ATPase activity (Lineweaver-Burk) (wt Cdr1 ATPase activity): uncompetitive inhibitor

C/C=C/C/C=C/CCC(=O)[C@H]1O[C@H]1C(N)=O [CER, cerulenin]
Fold-reduced resistance level (MIC) relative to AD/CDR1 (AD/CDR1-M639I): 2 fold
MIC (AD/CDR1-M639I): 4 µg/mL (≈ 17.9 µM)
Fold-reduced resistance level (MIC) relative to AD/CDR1 (AD/CDR1-G521R): 2 fold
MIC (AD/CDR1-G521R): 4 µg/mL (≈ 17.9 µM)
MIC (AD/CDR1-T1355N): 4 µg/mL (≈ 17.9 µM)
Fold-reduced resistance level (MIC) relative to AD/CDR1 (AD/CDR1-T1355N): 2 fold
MIC [1, 3]: 0.25 µg/mL (≈ 1.12 µM)
MIC [2]: 8 µg/mL (≈ 35.8 µM)
Fold-reduced resistance level (MIC) relative to AD/CDR1 (AD/CDR1-A713P): 2 fold
MIC (AD/CDR1-A713P): 4 µg/mL (≈ 17.9 µM)

Clc1ccccc1C(c1ccccc1)(c1ccccc1)n1ccnc1 [CLT, clotrimazole]
MIC (AD/CDR1-M639I): 8 µg/mL (≈ 23.2 µM)
MIC (AD/CDR1-T1355N): 4 µg/mL (≈ 11.6 µM)
MIC [1, 4]: 0.002 µg/mL (≈ 0.0058 µM)
MIC [2]: 8 µg/mL (≈ 23.2 µM)
MIC (AD/CDR1-A713P): 1 µg/mL (≈ 2.9 µM)

Clc1ccc(COC(Cn2ccnc2)c2ccc(Cl)cc2Cl)c(Cl)c1 (stereo not drawn) [MCZ, miconazole]
Fold-reduced resistance level (MIC) relative to AD/CDR1 (AD/CDR1-M639I): 4 fold
MIC (AD/CDR1-M639I): 2 µg/mL (≈ 4.81 µM)
Fold-reduced resistance level (MIC) relative to AD/CDR1 (AD/CDR1-G521R): 16 fold
MIC (AD/CDR1-G521R): 0.5 µg/mL (≈ 1.2 µM)
MIC (AD/CDR1-T1355N): 2 µg/mL (≈ 4.81 µM)
Fold-reduced resistance level (MIC) relative to AD/CDR1 (AD/CDR1-T1355N): 4 fold
MIC [1, 4]: 0.008 µg/mL (≈ 0.0192 µM)
MIC [2]: 8 µg/mL (≈ 19.2 µM)
Fold-reduced resistance level (MIC) relative to AD/CDR1 (AD/CDR1-A713P): 8 fold
MIC (AD/CDR1-A713P): 1 µg/mL (≈ 2.4 µM)

CC[C@@]1([C@@H]2O[C@@H]([C@H]3O[C@@](O)(CO)[C@H](C)C[C@@H]3C)C[C@@H]2C)CC[C@H]([C@]2(C)CC[C@]3(C[C@H](O)[C@@H](C)[C@@H]([C@@H](C)[C@@H](OC)[C@H](C)C(=O)O)O3)O2)O1 [MON, monensin]
Fold-reduced resistance level (MIC) relative to AD/CDR1 (AD/CDR1-M639I): 1 fold
MIC (AD/CDR1-M639I): 128 µg/mL (≈ 191 µM)
Fold-reduced resistance level (MIC) relative to AD/CDR1 (AD/CDR1-G521R): 256 fold
MIC (AD/CDR1-G521R): 0.5 µg/mL (≈ 0.745 µM)
MIC (AD/CDR1-T1355N): 128 µg/mL (≈ 191 µM)
Fold-reduced resistance level (MIC) relative to AD/CDR1 (AD/CDR1-T1355N): 1 fold
MIC [1, 3]: 0.031 µg/mL (≈ 0.0462 µM)
MIC [2]: 128 µg/mL (≈ 191 µM)
IC50 (wt Cdr1 ATPase activity; > = only partial inhibition, none = no reduction at highest concentration, read-out: Estimated IC50 for substrate inhibition of the ATPase activity): > 256000 nM
MIC (AD/CDR1-A713P): 128 µg/mL (≈ 191 µM)

C/C1=C/C(=O)O[C@@H]2C[C@@H](CC[C@H](C)/C=C\C=C\CC1)O[C@@](O)([C@@H]1CSC(=O)N1)C2 [LaA, latrunculin A]
Fold-reduced resistance level (MIC) relative to AD/CDR1 (AD/CDR1-M639I): 1 fold
MIC (AD/CDR1-M639I): 8 µg/mL (≈ 19 µM)
MIC (AD/CDR1-G521R): 0.125 µg/mL (≈ 0.297 µM)
MIC (AD/CDR1-T1355N): 2 µg/mL (≈ 4.74 µM)
Fold-reduced resistance level (MIC) relative to AD/CDR1 (AD/CDR1-T1355N): 4 fold
MIC [1, 4]: 0.016 µg/mL (≈ 0.038 µM)
MIC [2]: 8 µg/mL (≈ 19 µM)
Fold-reduced resistance level (MIC) relative to AD/CDR1 (AD/CDR1-A713P): 4 fold
MIC (AD/CDR1-A713P): 2 µg/mL (≈ 4.74 µM)

C[C@@H](c1ncncc1F)[C@](O)(Cn1cncn1)c1ccc(F)cc1F [VRC, voriconazole]
Fold-reduced resistance level (MIC) relative to AD/CDR1 (AD/CDR1-M639I): 1 fold
MIC (AD/CDR1-M639I): 8 µg/mL (≈ 22.9 µM)
Fold-reduced resistance level (MIC) relative to AD/CDR1 (AD/CDR1-G521R): 8 fold
MIC (AD/CDR1-G521R): 1 µg/mL (≈ 2.86 µM)
MIC (AD/CDR1-T1355N): 8 µg/mL (≈ 22.9 µM)
Fold-reduced resistance level (MIC) relative to AD/CDR1 (AD/CDR1-T1355N): 1 fold
MIC [1, 3]: 0.016 µg/mL (≈ 0.0458 µM)
MIC [2]: 8 µg/mL (≈ 22.9 µM)
Fold-reduced resistance level (MIC) relative to AD/CDR1 (AD/CDR1-A713P): 2 fold
MIC (AD/CDR1-A713P): 4 µg/mL (≈ 11.5 µM)

CC[C@H]1/C=C/C=C/C[C@@H](C)[C@H](O)[C@@](C)(O)C(=O)[C@@H](C)[C@H](O)[C@@H](C)C(=O)[C@@H](C)[C@H](O)[C@@H](C)/C=C/C(=O)O[C@@H]2[C@H](C)[C@H](CC1)O[C@]1(CC[C@H](C)[C@H](C[C@@H](C)O)O1)[C@H]2C [Oligomycin, oligomycin]
Ki (wt Cdr1 ATPase activity): 540 ± 10 nM
Vmax of ATPase activity in the presence of inhibitor (wt Cdr1 ATPase activity; [I] 0.5 μM): 185 nmol/min/mg
Vmax of ATPase activity in the presence of inhibitor (wt Cdr1 ATPase activity; [I] 1.0 μM): 132 nmol/min/mg
type of inhibition of ATPase activity (Lineweaver-Burk) (wt Cdr1 ATPase activity): noncompetitive inhibition
